# Test system: Collagen Induced Arthritis (CIA) in female Lewis rats
# Assay: In vivo chronic study: Collagen Induced Arthritis (CIA)
# Parameters: species or system rat
# Conditions: 0.5 mg/Kg
# From the text: Collagen Induced Arthritis (CIA) is a well characterized model of human rheumatoid arthritis (RA) that can be induced in susceptible animals following immunization with type II collagen (cII) in Freund's adjuvant. […] Pathophysiology of CIA consists of T cell component, as evidenced by increased infiltration of T-cells in joint synovium and also, by attenuation of CIA in T-cell deficient mice. CIA development involves B cell component too, as is evidenced by circulating cII antibody in disease animals and also, failure to develop the disease in xid mice/B cell deficient mice/CXCR5 null mice. […] See, Pine, “Inflammation and bone erosion are suppressed in models of rheumatoid arthritis following treatment with a novel Syk inhibitor”, Clin. Immunol., 2007, 124(3):244-57; Xiong cha, “Suppression of the onset and progression of collagen-induced arthritis in rats by QFGJS, a preparation from an anti-arthritic Chinese herbal formula”, J. Ethnopharmacology (2007) 110:39-48; and Stolina, “The evolving systemic and local biomarker milieu at different stages of disease progression in rat collagen induced arthritis”, Biomarkers (2008) 13(7-8):692-712, which are herein incorporated by reference.
# Female Lewis rats (8 per group, 6-8 weeks old) were immunized on day 1 with type II collagen (Immunization grade Bovine type II; Chondrex; Cat #20021) emulsified with Complete Freund's Adjuvant (Sigma; Cat# F5881) at a final concentration of 1.2 mg/mL). For the initial immunization, the animals were injected at the base of the tail with 300 μg of the cII (0.25 mL/rat). A booster injection of the same type II collagen emulsified with Incomplete Freund's Adjuvant (Sigma, Cat #F5506) (0.25 mL/rat) was given to the animals on day 8 at the base of the tail (100 μg). The final cII concentration in the booster was […].
# Animals with an arthritic score of ≥1 were grouped and dosing with test compound (30 mg/kg bid) or methotrexate (0.5 mg/kg) started between about day 12 to day 14, with daily dosing of their respective compounds continuing for 10 days.
# Edema: Paw volumes are measured by Plethysmometry for the animals before induction of CIA (Basal readings) and on Day 1, 3, 6 and 9 of dosing period. Both hind paw volumes were measured and edema was calculated by subtracting from the basal mean.
# Arthritic score: Animals were scored for the symptoms of arthritis every day starting from Day of onset of disease till the end of the study. Both the hind paws were scored and the total scores were averaged and compared with control. The scoring pattern was as follows:
# The percent inhibition of Edema was calculated with respect to control by the formula: […]
# The percent inhibition of Arthritic score was calculated with respect to control by the formula: […]
# Means of different groups were compared with control using one way ANOVA followed by Dunnett's test. Significance is represented as follows.
compound,measurement,setting,value
"CN(Cc1cnc2nc(N)nc(N)c2n1)c1ccc(C(=O)N[C@@H](CCC(=O)O)C(=O)O)cc1 [Methotrexate, methotrexate, reference compound]",Percent inhibition of Edema (Day 9 of dosing),Day 9 of dosing,6
same,Percent inhibition of Arthritic score (Day 10 of dosing),Day 10 of dosing,15

# Source: US10183944B2 (Asana Biosciences, LLC, priority 2011, dated 2019)
